Assays:
[1] = Plasma stability of prodrugs (bioconversion to parent drug); format: in vitro ADME
Experimental: Approximately 1 mg/mL of stock solution of each prodrug was prepared in 100 μL of ethanol and 900 μL of acetonitrile. Next, 10 μL of stock was spiked into 1 mL of plasma and vortexed. The samples were kept sealed in an amber vial and samples were obtained to analyze for bioconversion to parent drug.
An approximated 1 mg/mL stock solution of each prodrug was prepared in 100 μL of ethanol and 900 μL of acetonitrile. Next, 10 μL of stock was spiked into 1 mL of plasma and vortexed. The samples were kept sealed in an amber vial and samples were obtained to analyze for bioconversion to parent drug.
Approximately 1 mg/mL of stock solution of each prodrug was prepared in 100 μL of ethanol and 900 μL of acetonitrile. Ten μL of stock was spiked into 1 mL of plasma and vortexed. The samples were kept sealed in an amber vial and samples were obtained to analyze for bioconversion to parent drug.

[2] = In vitro human skin permeation, flow-through diffusion cells; conditions: for Flux enhancement: total THC equivalents
[3] = Table 4, gel formulation, analyte: THC from prodrug
[4] = Table 4, gel formulation, analyte: THC or intact prodrug (PD)
[5] = Table 17, 90:8:2 PG:H2O:IPM donor solution, analyte: THC from prodrug
[6] = Table 17, 90:8:2 PG:H2O:IPM donor solution, analyte: THC or intact prodrug as applied
[7] = Table 17, 90:8:2 PG:H2O:IPM donor solution
[8] = Table 17, 90:8:2 PG:H2O:IPM donor solution, total THC equivalents (THC and/or prodrug)
[9] = Table 7, 2.36:1.18:1 PG:ethanol:H2O donor solution, analyte: THC from prodrug
[10] = Table 7, 2.36:1.18:1 PG:ethanol:H2O donor solution, analyte: THC or intact prodrug as applied
[11] = Table 7, 2.36:1.18:1 PG:ethanol:H2O donor solution, total THC equivalents (THC and/or prodrug)

SMILES	% Prodrug at time (h) ([1]; Table 15, 0.1 h) [%]	% Prodrug at time (h) ([1]; Table 15, 1 h) [%]	% Prodrug at time (h) ([1]; Table 15, 2.5 h) [%]	24 h skin conc [2, 3] [µmol/g]	24 h skin conc [2, 4] [µmol/g]	24 h cumulative amt [2, 5] [nmol]	24 h cumulative amt [2, 6] [nmol]	24 h skin conc [2, 6] [µmol/g]	Flux [2, 6] [nmol/cm^2/h]	Lag time [2, 6] [h]	Flux enhancement [2, 7]	24 h cumulative amt [2, 8] [nmol]	24 h skin conc [2, 8] [µmol/g]	Flux [2, 8] [nmol/cm^2/h]	Lag time [2, 8] [h]	% Prodrug at time (h) ([1]; Table 11, 0.1 h) [%]	% Prodrug at time (h) ([1]; Table 11, 1 h) [%]	% Prodrug at time (h) ([1]; Table 11, 22 h) [%]	% Prodrug at time (h) ([1]; Table 11, 24 h) [%]	% Prodrug at time (h) ([1]; Table 11, 42 h) [%]	further results
CCCCCc1cc(OC(=O)COCCOCCOCCOC)c2c(c1)OC(C)(C)[C@@H]1CCC(C)=C[C@@H]21 [ALL00117, Δ^9-Tetrahydrocannabinol 3,6,9,12-tetraoxatridecanoyl ester]	100	35	7	0.7 ± 0.1	13.8 ± 4.1	0.7 ± 0.7	3.0 ± 0.3	7.3 ± 1.8	0.4 ± 0.1	15.1 ± 0.2	0.45	3.7 ± 1.0	7.3 ± 1.8	0.5 ± 0.1	15.4 ± 0.3	–	–	–	–	–	% Prodrug at time (h) ([1]; Table 15, 3.5 h): 5%; 24 h skin conc ([2]; Table 2, 100% PG donor solution, analyte: THC from prodrug): 1.1 ± 0.0 µmol/g; 24 h skin conc ([2]; Table 2, 100% PG donor solution, analyte: THC or intact prodrug (PD)): 8.9 ± 7.1 µmol/g; 24 h cumulative amt ([2]; Table 4, gel formulation): 1.7 ± 0.0 nmol; Flux ([2]; Table 4, gel formulation): 0.07 ± 0.00 nmol/cm^2/h
CCCCCc1cc(OC(=O)CN(C)C)c2c(c1)OC(C)(C)[C@@H]1CCC(C)=C[C@@H]21 [ALL00118, Δ^9-Tetrahydrocannabinol N,N-dimethylglycyl ester]	100	94	81	65.9 ± 24.7	48.8 ± 30.2	5.6 ± 0.5	5.8 ± 0.4	9.8 ± 5.2	0.5 ± 0.0	12.8 ± 0.1	0.90	11.4 ± 0.7	13.5 ± 5.8	0.9 ± 0.1	11.6 ± 0.2	100	94	86	81	15	% Prodrug at time (h) ([1]; Table 15, 2 h): 86%; % Prodrug at time (h) ([1]; Table 15, 24 h): 15%; 24 h skin conc ([2]; Table 3, 1:1:1 PG:ethanol:H2O donor solution, analyte: THC from prodrug): 7.1 ± 2.4 µmol/g; 24 h skin conc ([2]; Table 3, 1:1:1 PG:ethanol:H2O donor solution, analyte: THC or intact prodrug (PD)): 37.3 ± 23.2 µmol/g; 24 h skin conc [2, 5]: 3.7 ± 0.6 µmol/g; Flux [2, 5]: 0.4 ± 0.0 nmol/cm^2/h; Lag time [2, 5]: 10.2 ± 0.3 h
CCCCCc1cc(OC(=O)OCCOCCOCCOCCOC)c2c(c1)OC(C)(C)[C@@H]1CCC(C)=C[C@@H]21 [ALL00119, Δ^9-Tetrahydrocannabinol 3,6,9,12-tetraoxatridecyl carbonate]	–	–	–	–	–	–	–	–	–	–	–	–	–	–	–	100	82	64	51	0	24 h skin conc ([2]; Table 9, 2.36:1.18:1 pH = 5.5 PG:ethanol:H2O donor solution, analyte: THC or intact prodrug as applied): 13.6 ± 7.5 µmol/g; 24 h skin conc ([2]; Table 9, 2.36:1.18:1 pH = 5.5 PG:ethanol:H2O donor solution, total THC equivalents (THC and/or prodrug)): 13.6 ± 7.5 µmol/g
CCCCCc1cc(OC(=O)CNC=O)c2c(c1)OC(C)(C)[C@@H]1CCC(C)=C[C@@H]21 [ALL00120, Δ^9-Tetrahydrocannabinol N-formylglycyl ester]	–	–	–	–	–	–	–	–	–	–	–	–	–	–	–	70	8	0	0	0	24 h cumulative amt [2, 9]: 8.8 ± 1.2 nmol; 24 h skin conc [2, 9]: 3.1 ± 1.1 µmol/g; Flux [2, 9]: 0.6 ± 0.1 nmol/cm^2/h; Lag time [2, 9]: 9.2 ± 0.8 h; 24 h cumulative amt [2, 10]: 30.5 ± 7.0 nmol; 24 h skin conc [2, 10]: 47.1 ± 6.3 µmol/g; Flux [2, 10]: 2.0 ± 0.5 nmol/cm^2/h; Lag time [2, 10]: 8.1 ± 1.6 h; Flux enhancement ([2]; Table 7, 2.36:1.18:1 PG:ethanol:H2O donor solution): 0.87; 24 h cumulative amt [2, 11]: 39.3 ± 6.6 nmol; 24 h skin conc [2, 11]: 50.2 ± 7.1 µmol/g; Flux [2, 11]: 2.7 ± 0.5 nmol/cm^2/h; Lag time [2, 11]: 8.4 ± 1.3 h; 24 h skin conc ([2]; Table 8, gel formulation, analyte: THC from prodrug): 3.1 ± 2.1 µmol/g; 24 h skin conc ([2]; Table 8, gel formulation, analyte: THC or intact prodrug as applied): 44.8 ± 1.6 µmol/g; 24 h skin conc ([2]; Table 8, gel formulation, total THC equivalents (THC and/or prodrug)): 47.9 ± 2.8 µmol/g
